Reference: patent publication US8604042B2, “Bi-aryl meta-pyrimidine inhibitors of kinases” (TargeGen, Inc., priority 2005, dated 2013)
Entries after “also recorded” stand apart in the source; their conditions may differ.

How the values were obtained:
[1] = tested on: phospho-JAK2V617F, phospho-STAT5, phospho-STAT3; test: Phosphorylation of JAK2V617F, STAT5 and STAT3 in HEL cells; type: cell-based; settings: Homo sapiens, read-out: IC50, levels of phospho-JAK2V617F, phospho-STAT5, phospho-STAT3
[2] = tested on: normal human dermal fibroblasts (NHDF); test: XTT cell proliferation assay, normal human dermal fibroblast control; type: cell-based; settings: Control data: Normal human dermal fibroblast control
Protocol: (§1) HEL, CTLL-2 & normal human dermal fibroblasts (NHDF) were from the American Tissue Culture Collection Rockville, Md.). BaF/3 cells were obtained from DKFZ Cancer Research Center (Heidelberg, Germany).
(§2) BaF/3, HEL & NHDF cells were grown in RPMI 1640 medium (Gibco BRL, Gaithersburg, Md.) supplemented with penicillin, streptomycin, L-glutamine, and 10% fetal bovine serum (FBS). CTLL-2 cells were grown in the same media further supplemented with 20 U/mL recombinant IL-2 (Hoffmann-LaRoche, Nutley, N.J.). Plasmid containing the human JAK2 coding sequence was purchased from Invitrogen (Madison, Wis.). JAK2^V617F cDNA was generated by using site-directed mutagenesis to introduce the V617F mutation into the human JAK2 coding sequence followed by verification using two-directional sequencing. […]
(§3) Cell proliferation assay was performed using the XTT cell proliferation kit according to the manufacturer's instructions (Roche, Alameda, Calif.). […] The colored formazan product that is formed was measured spectrophotometrically using the Vmax spectrophotometer (Molecular Devices, Sunnyvale, Calif.) at 450 nm with correction at 650 nm. IC50 values were determined using the GraphPad Prism 4.0 software (San Diego, Calif.), wherefore OD values were plotted on y-axis (linear scale) and concentration (mM) on the x-axis (log scale).

[3] = tested on: BaF/3 cells expressing JAK2^V617F and GFP; test: JAK2V617F-driven circulating tumor model in SCID mice; type: in vivo, mouse; settings: oral 10, 30 or 100 mg/kg; day 11; FACS, GFP positive cells
CTLL-2 cells = test: IL-2-induced JAK3-dependent proliferation of CTLL-2 cells; type: cell-based; settings: Mus musculus
Protocol: as §1, §2, §3

STAT5 phosphorylation = STAT5 phosphorylation in Ba/F3-V617F cells; type: cell-based; settings: data not shown
Protocol: Protein concentration was determined using the BCA method (Pierce, Rockford, Ill.) and 100 μg of total cellular protein of each sample in 1× Laemmli buffer were subjected to Western blot analysis. The protein blot was probed with an anti-phospho-STAT5 (Tyr694/699) (Upstate Biotechnology, Charlottesville, Va.), subsequently stripped and re-probed with an anti-STAT5 antibody (Cell Signaling Technology, Danvers, Mass.). The phospho-STAT5 or STAT5 protein was visualized by the enhanced chemoluminescence method (Pierce). In vivo signaling studies were done in a similar fashion. […] Spleens were harvested 7 h after dosing and quickly homogenized in a FastPrep machine (Qbiogen, Irvine, Calif.). 100 μg of each spleen homogenate were subjected to Western blot analysis. The protein […] anti-phospho-STAT5 (Tyr694/699) (Upstate Biotechnology, Charlottesville, Va.), subsequently stripped and re-probed with an anti-STAT5 antibody (Cell Signaling Technology, Danvers, Mass.). The phospho-STAT5 or STAT5 protein was visualized by the enhanced chemoluminescence method (Pierce). In vivo signaling studies were done in a similar fashion. […] Spleens were harvested 7 h after dosing and quickly homogenized in a FastPrep machine (Qbiogen, Irvine, Calif.). 100 μg of each spleen homogenate were subjected to Western blot analysis. […]

parental Ba/F3 cells = test: Growth of parental Ba/F3 cells; type: cell-based; settings: Mus musculus, BaF3; data not shown
Description: (§4) […]. data not shown), reflecting their dependence on signaling by wild type JAK2. […].

HEL cells = test: XTT cell proliferation assay, HEL cells; type: cell-based; settings: Homo sapiens
BCR-ABL+K562 cells = test: Growth of K562 cells; type: cell-based; settings: Homo sapiens, control experiments
Description: as §4

[4] = tested on: bleomycin induced dermal fibrosis; test: Mouse model of bleomycin induced dermal fibrosis; type: in vivo; settings: low dose (30 mg/kg, bid) and high dose (100 mg/kg, bid)
Protocol: In vivo studies using compound CLXII were conducted in a mouse model of bleomycin induced dermal fibrosis. FIG. 41 indicates the results of administering a low dose (30 mg/kg, bid) and a high dose (100 mg/kg, bid) of CLXII.

[5] = tested on: fibroblasts from sclerotic patients and healthy fibroblasts; test: Extracellular matrix protein production in fibroblasts (real-time PCR); type: cell-based, human
Protocol: An in-vitro study was conducted using compound CLXII to examine the production of extracellular matrix proteins responsible for fibrosis in fibroblasts from sclerotic patients and healthy fibroblasts.

Structure (SMILES) | IC50 [1] [nM] | EC50 [2] [nM] | number of circulating JAK2^V617F tumor cells [3] | EC50 (CTLL-2 cells; Control data: IL-2-induced JAK3-dependent proliferation) [nM] | IC50 (CTLL-2 cells; IL-2 dependent cytotoxic T-cells, FIG. 32B, read-out: IC50, growth of CTLL-2 cells) [nM] | IC50 (STAT5 phosphorylation) [nM] | IC50 (parental Ba/F3 cells) [nM] | EC50 (HEL cells; XTT, 72 hour incubation) [nM] | IC50 (HEL cells; homozygous for the JAK2V617F allele, FIG. 32C, read-out: IC50, HEL cells) [nM] | IC50 (BCR-ABL+K562 cells) [nM] | bleomycin induced dermal fibrosis [4] | basal synthesis of collagen 1a1 ([5]; real-time PCR, 5% FCS, sclerotic vs normal fibroblasts) | basal synthesis of fibronectin 1 ([5]; sclerotic or normal fibroblasts) | basal synthesis of collagen 1a2 ([5]; sclerotic vs normal fibroblasts)
Cc1cnc(Nc2ccc(N3CCN(C)CC3)cc2)nc1Nc1cccc(S(=O)(=O)NC(C)(C)C)c1 [XLV] | 300 to 600 | 6490 | reduces the number of circulating JAK2^V617F tumor cells in a dose-dependent manner | 3400 | 3400 | 300 | 470 | 270 | 300 | 1000 |  |  |  | 
Cc1ccc(Nc2nc(Nc3ccc(N4CCN(C)CC4)cc3)ncc2C)cc1C [CLXII] |  |  |  |  |  |  |  |  |  |  | prevention of bleomycin induced dermal fibrosis | inhibition of basal synthesis of collagen 1a1 in sclerotic fibroblasts, but not normal, fibroblasts; also recorded: inhibition of basal synthesis of collagen 1a1 in sclerotic, but not normal, fibroblasts | dose not inhibit basal synthesis of fibronection-1 in either sclerotic or normal fibroblasts | some inhibition of basal synthesis of collagen 1a2 in sclerotic fibroblasts, but not normal, fibroblasts
